{"source": "patent US11766435B2", "about": "“N3-substituted iminopyrimidinones as antimalarial agents” (Merck Sharp & Dohme LLC, priority 2016, dated 2023)", "data": [{"system": "asexual P. falciparum 3D7 parasites", "assay": "P. falciparum growth inhibition assay measuring LDH activity (Assay 1)", "type": "cell-based", "conditions": "3D7 strain, parasitized red blood cells, 72 h incubation, LDH activity read by absorbance at 650 nm", "experimental": "(§1) A modified version of the assay described in Gamo, F. J., Sanz, L. M., Vidal, J., de Cozar, C., Alvarez, E., Lavandera, J. L., Vanderwall, D. E., Green, D. V., Kumar, V., Hasan, S., Brown, J. R., Peishoff, C. E., Cardon, L. R., Garcia-Bustos, J. F., Nature, 465 (2010) 305-310 (Gamo et al.) was used to assess the activity of compounds against asexual P. falciparum 3D7 parasites. Compounds were pre-dispensed in 384-well plates, RPMI/AlbuMAX growth media was added and P. falciparum inoculated. Plates were incubated for 72 h and then frozen at −80° C. overnight. Lactate dehydrogenase (LDH) activity was quantified with the modified cofactor 3-acetylpyridine adenine dinucleotide (APAD) (Sigma Aldrich) by measuring absorbance of the tetrazolium indicator nitro blue tetrazolium (NBT) (Sigma Aldrich) at 650 nm.\n(§2) An inoculum of synchronous P. falciparum (3D7 strain) parasitized red blood cells (PRBC) at 0.7% parasitaemia and 2% haematocrit in RPMI-1640, 5% AlbuMAX, 2% D-sucrose, 0.3% glutamine and 150 μM hypoxanthine was used for the assay.\n(§3) Compound master plates (384-well) were prepared by a 10 pt serial dilution of compounds, from 1 mM to 50.8 nM, in columns 3-12 and 13-22. DMSO was dispensed into columns 1 and 23 of the compound master plate to be used as the positive growth control (100% viability). […] Intermediate compound dilution plates were prepared by dispensing 1 μl from each well of the compound master plate into 11.5 μl of RPMI/AlbuMAX growth media. Duplicate assay plates (384-well) were then prepared by dispensing 0.5 μL of compound from the intermediate dilution plates into 9.5 μl of RPMI/AlbuMAX growth media. The parasite inoculum (30 μL) was dispensed into the assay plates containing compounds using a Multidrop dispenser (Thermo Scientific) such that the final assay volume was 40 μL and final compound concentration was 1 μM-0.05 nM (the volume of compound addition can be adjusted to the preferred and agreed screening concentration). The final DMSO concentration was 0.1% (ideally 0.2% to limit toxicity to parasites), but this is dependent on volume of compound DMSO stock solution that can be supplied. Plates were incubated at 37° C. for 72 h in an atmosphere of 5% CO2, 5% O2, […].\n(§4) After 72 h of incubation, plates were frozen at −80° C. overnight and then thawed at room temperature for at least 4 h. To evaluate LDH activity, 45 μL of freshly made reaction mix (174 mM sodium L-lactate (Sigma Aldrich), 214 μM 3-acetyl pyridine adenine dinucleotide (APAD) (Sigma Aldrich), 270 μM nitro blue tetrazolium chloride (NBT) (Sigma Aldrich), 4.35 U/mL diaphorase (from Clostridium kluyveri) (Sigma Aldrich), 0.7% Tween 20, 100 mM Tris-HCl pH 7.5) was dispensed using a Multidrop dispenser (Thermo Scientific). Plates were shaken to ensure mixing and absorbance at 650 nm was monitored using a Perkin Elmer Envision plate reader after 30 min of incubation at room temperature. Data were normalized to percent growth inhibition using positive and negative controls, and analysed using TIBCO Spotfire software. […]", "units": {"IC50": "nM"}, "values": [{"smiles": "C[C@H](NC(=O)c1cccc(C(c2ccccc2)N2C(=N)NC(C)(C)CC2=O)c1)c1ccccc1", "note": "(single isomer, unassigned) [Compound 27]", "IC50": 14}, {"smiles": "CC(C)[C@]1(C)CC(=O)N(Cc2cc(F)cc(C(=O)NC(CCN(C)C)c3ccccc3)c2)C(=N)N1", "note": "(stereo partly shown) [Compound 34]", "IC50": 310}, {"smiles": "C[C@H](NC(=O)c1cccc(C(c2ccccc2)N2C(=N)NC(C)(C)CC2=O)c1)c1ccccc1", "note": "(single isomer, unassigned) [Compound 28]", "IC50": "> 1000"}, {"smiles": "CC(C)[C@]1(C)CC(=O)N(C(c2ccccc2)c2cccc(C(=O)N[C@@H](C)c3ccccc3)c2)C(=N)N1", "note": "(stereo partly shown) [Compound 56]", "IC50": 360}, {"smiles": "CC(C)[C@]1(C)CC(=O)N(C(c2ccccc2)c2cccc(C(=O)N[C@@H](C)c3ccccc3)c2)C(=N)N1", "note": "(stereo partly shown) [Compound 1]", "IC50": 3}, {"smiles": "CC(C)[C@]1(C)CC(=O)N(C(c2ccccc2)c2cccc(C(=O)N[C@@H](C)c3ccccc3)c2)C(=N)N1", "note": "(stereo partly shown) [Compound 55]", "IC50": 3.5}]}, {"system": "asexual P. falciparum 3D7 parasites", "assay": "P. falciparum growth inhibition assay measuring LDH activity (Assay 1)", "type": "cell-based", "conditions": "Plasmodium falciparum, 3D7, Erythrocyte, 72 h, 3D7 strain, parasitized red blood cells, 72 h incubation, LDH activity read by absorbance at 650 nm", "experimental": "as §1, §2, §3, §4", "units": {"IC50": "nM"}, "values": [{"smiles": "COCC[C@H](NC(=O)c1cc(F)cc(CN2C(=N)N[C@](C)(C(C)C)CC2=O)c1)c1ccc(F)cc1", "note": "[Compound 17]", "IC50": 10.6}, {"smiles": "C[C@H](NC(=O)c1cc(F)cc(CN2C(=N)NC3(CCCCC3)CC2=O)c1)c1ccccc1", "note": "[Compound 33]", "IC50": 260}, {"smiles": "C[C@H](NC(=O)c1cc(F)cc(CN2C(=N)NC3(CCCC3)CC2=O)c1)c1ccccc1", "note": "[Compound 32]", "IC50": 500}, {"smiles": "CC1(C)CC(=O)N(C(c2ccccc2)c2cccc(C(=O)N3Cc4ccccc4C3)c2)C(=N)N1", "note": "(stereo not shown) [Compound 54]", "IC50": 390}, {"smiles": "C[C@H](NC(=O)c1cc(F)cc(CN2C(=N)N[C@@](C)(c3ccccc3)CC2=O)c1)c1ccccc1", "note": "[Compound 36]", "IC50": 130}, {"smiles": "C[C@H](NC(=O)c1cc(F)cc(CN2C(=N)NC(c3ccccc3)(c3ccccc3)CC2=O)c1)c1ccccc1", "note": "[Compound 38]", "IC50": 570}, {"smiles": "CC(C)[C@]1(C)CC(=O)N(Cc2cccc(N3C[C@@H](c4ccccc4)CC3=O)c2)C(=N)N1", "note": "[Compound 15]", "IC50": 7.74}, {"smiles": "COCC[C@H](NC(=O)c1cc(Cl)cc(CN2C(=N)N[C@](C)(C(C)C)CC2=O)c1)c1ccccc1", "note": "[Compound 5]", "IC50": 2.53}, {"smiles": "CC(C)[C@]1(C)CC(=O)N(Cc2cc(F)cc(C(=O)N[C@H](C)c3ccccc3)c2)C(=N)N1", "note": "[Compound 23]", "IC50": 33}, {"smiles": "CC(C)[C@]1(C)CC(=O)N([C@H](C)c2cc(F)cc(C(=O)N[C@@H](C)c3ccccc3)c2)C(=N)N1", "note": "[Compound 13]", "IC50": 6.43}, {"smiles": "COCC[C@H](NC(=O)c1cc(F)cc(CN2C(=N)N[C@](C)(C(C)C)CC2=O)c1)c1ccccc1", "note": "[Compound 11]", "IC50": 5.67}, {"smiles": "CC(C)[C@]1(C)CC(=O)N([C@H](C)c2cccc(N3C[C@@H](c4ccccc4)CC3=O)c2)C(=N)N1", "note": "[Compound 16]", "IC50": 8.06}, {"smiles": "CCC1(CC)CC(=O)N(Cc2cc(F)cc(C(=O)N[C@@H](C)c3ccccc3)c2)C(=N)N1", "note": "[Compound 31]", "IC50": 94}, {"smiles": "Cc1ccccc1CNC(=O)c1ccc(CN2C(=N)N[C@](C)(C(C)C)CC2=O)cc1", "note": "[Compound 44]", "IC50": 320}, {"smiles": "CC(C)[C@]1(C)CC(=O)N(C(c2ccccc2)c2cccc(C(=O)N3Cc4nccnc4C3)c2)C(=N)N1", "note": "(stereo partly shown) [Compound 52]", "IC50": 270}, {"smiles": "Cc1cccc(CNC(=O)c2ccc(CN3C(=N)N[C@](C)(C(C)C)CC3=O)cc2)c1", "note": "[Compound 45]", "IC50": 810}, {"smiles": "COCCC[C@H](NC(=O)c1cc(F)cc(CN2C(=N)N[C@](C)(C(C)C)CC2=O)c1)c1ccccc1", "note": "[Compound 14]", "IC50": 6.62}, {"smiles": "CC(C)[C@]1(C)CC(=O)N(Cc2cc(C(=O)N[C@@H](C)c3ccccc3)ccc2F)C(=N)N1", "note": "[Compound 18]", "IC50": 12.9}, {"smiles": "CC(C)[C@]1(C)CC(=O)N(Cc2cc(F)cc(C(=O)N[C@H]3CCCc4ccccc43)c2)C(=N)N1", "note": "[Compound 4]", "IC50": 1.68}, {"smiles": "CC(C)[C@]1(C)CC(=O)N(Cc2cc(F)cc(C(=O)N[C@@H](C)c3ccccc3)c2)C(=N)N1", "note": "[Compound 24]", "IC50": 48.8}, {"smiles": "CC(C)[C@]1(C)CC(=O)N([C@H](C)c2cccc(N3C[C@H](c4ccccc4)CC3=O)c2)C(=N)N1", "note": "[Compound 20]", "IC50": 14}, {"smiles": "CC(C)[C@]1(C)CC(=O)N(Cc2ccc(C(=O)NCc3ccc(F)cc3)cc2)C(=N)N1", "note": "[Compound 43]", "IC50": 860}, {"smiles": "CC(C)[C@]1(C)CC(=O)N(Cc2ccc(C(=O)N[C@@H](C)c3cccc(F)c3)s2)C(=N)N1", "note": "[Compound 3]", "IC50": 1.37}, {"smiles": "CC(C)[C@]1(C)CC(=O)N(Cc2cc(F)cc(C(=O)NC3CCCCCC3)c2)C(=N)N1", "note": "[Compound 19]", "IC50": 14}, {"smiles": "COCC[C@H](NC(=O)c1cccc(CN2C(=N)N[C@](C)(C(C)C)CC2=O)c1)c1ccccc1", "note": "[Compound 10]", "IC50": 5.34}, {"smiles": "CC(C)[C@]1(C)CC(=O)N(Cc2ccc(C(=O)NCc3cccc(F)c3)cc2)C(=N)N1", "note": "[Compound 42]", "IC50": 480}, {"smiles": "CCC1(CC)CC(=O)N(Cc2cc(F)cc(C(=O)N(C)[C@@H](C)c3ccccc3)c2)C(=N)N1", "note": "[Compound 29]", "IC50": 870}, {"smiles": "C[C@H](NC(=O)c1cc(F)cc(CN2C(=N)NCC(c3ccccc3)C2=O)c1)c1ccccc1", "note": "(stereo partly shown) [Compound 49]", "IC50": 770}, {"smiles": "N=C1N[C@](CC2CC2)(c2ccccc2)CC(=O)N1Cc1ccc(C(F)(F)F)c(C(=O)N2CCn3c(nnc3C(F)(F)F)C2)c1", "note": "[Compound 22]", "IC50": 27.2}, {"smiles": "CCC1(CC)CC(=O)N(Cc2cc(F)cc(C(=O)N3Cc4nccnc4C3)c2)C(=N)N1", "note": "[Compound 53]", "IC50": 870}, {"smiles": "CC(C)[C@]1(C)CC(=O)N(Cc2cc(F)cc(C(=O)N3Cc4ccccc4C3)c2)C(=N)N1", "note": "[Compound 35]", "IC50": 390}, {"smiles": "N=C1N[C@](CC2CC2)(c2ccccc2)CC(=O)N1Cc1ccc(Br)c(C(=O)N2Cc3nccnc3C2)c1", "note": "[Compound 12]", "IC50": 6.01}, {"smiles": "N=C1N[C@](CC2CC2)(c2ccccc2)CC(=O)N1Cc1ccc(-c2ccncc2)c(C(=O)N2Cc3nccnc3C2)c1", "note": "[Compound 7]", "IC50": 3.27}, {"smiles": "CC(C)[C@]1(C)CC(=O)N(Cc2cc(F)cc(C(=O)N[C@H]3CCc4ccccc43)c2)C(=N)N1", "note": "[Compound 6]", "IC50": 2.92}, {"smiles": "CC(C)[C@]1(C)CC(=O)N([C@H](C)c2cccc(C(=O)N[C@@H](C)c3cccc(Cl)c3)c2)C(=N)N1", "note": "[Compound 21]", "IC50": 19.9}, {"smiles": "COCC[C@H](NC(=O)c1cc(F)cc(CN2C(=N)NC3(CCCC3)CC2=O)c1)c1ccccc1", "note": "[Compound 9]", "IC50": 4.19}, {"smiles": "C[C@H](NC(=O)c1cc(F)cc(CN2C(=N)NC3(CCC3)CC2=O)c1)c1ccccc1", "note": "[Compound 39]", "IC50": 1000}, {"smiles": "CC(C)[C@]1(C)CC(=O)N(Cc2cc(F)cc(C(=O)NC(CCN(C)C)c3ccccc3)c2)C(=N)N1", "note": "(stereo partly shown) [Compound 30]", "IC50": 260}, {"smiles": "CC(C)[C@]1(C)CC(=O)N(Cc2ccc(C(=O)NCc3ccccc3F)cc2)C(=N)N1", "note": "[Compound 41]", "IC50": 430}, {"smiles": "CC(C)[C@]1(C)CC(=O)N(Cc2ccc(C(=O)N[C@@H](C)c3ccccc3)cc2)C(=N)N1", "note": "[Compound 40]", "IC50": 630}, {"smiles": "C[C@H](NC(=O)c1cc(F)cc(CN2C(=N)NC3(CCC(C)(C)CC3)CC2=O)c1)c1ccccc1", "note": "[Compound 37]", "IC50": 620}, {"smiles": "CC(C)CC(c1ccc(C(F)(F)F)c(C(=O)N2Cc3nccnc3C2)c1)N1C(=N)N[C@](CC2CC2)(c2ccccc2)CC1=O", "note": "(stereo partly shown) [Compound 2]", "IC50": 1.3}, {"smiles": "CCC1(CC)CC(=O)N(Cc2cc(F)cc(C(=O)N3Cc4ccccc4C3)c2)C(=N)N1", "note": "[Compound 50]", "IC50": 610}, {"smiles": "CC(C)[C@]1(C)CC(=O)N(C(c2ccccc2)c2cccc(C(=O)N3Cc4ccccc4C3)c2)C(=N)N1", "note": "(stereo partly shown) [Compound 51]", "IC50": 49}, {"smiles": "Cc1ccc(CNC(=O)c2ccc(CN3C(=N)N[C@](C)(C(C)C)CC3=O)cc2)cc1", "note": "[Compound 46]", "IC50": 550}, {"smiles": "CC(C)[C@]1(C)CC(=O)N(Cc2ccc(C(=O)N3Cc4ccccc4C3)cc2)C(=N)N1", "note": "[Compound 47]", "IC50": 490}, {"smiles": "C[C@@]1(c2c(F)cc(F)cc2F)CC(=O)N(Cc2cccc(C(=O)N3Cc4ccccc4C3)c2)C(=N)N1", "note": "[Compound 25]", "IC50": 139}, {"smiles": "N=C1N[C@](CC2CC2)(c2ccccc2)CC(=O)N1Cc1ccc(-c2ccccc2)c(C(=O)N2Cc3nccnc3C2)c1", "note": "[Compound 8]", "IC50": 3.42}, {"smiles": "CC(C)[C@]1(C)CC(=O)N([C@@H](C)c2cccc(N3C[C@H](c4ccccc4)CC3=O)c2)C(=N)N1", "note": "[Compound 26]", "IC50": 371}]}]}
